Data from US20230092495A1, “SOLID FORMS OF TEZACAFTOR AND PROCESSES FOR THE PREPARATION THEREOF” (QUÍMICA SINTÉTICA, S.A., priority 2020, published 2023).

Columns and labels:
[1] = Stability of amorphous tezacaftor, polymorphic stability by XRPD; type: physicochemical
Description: (§1) Unless otherwise indicated, in the context of the present invention a range of values indicated for a certain parameter, for example the weight of a component in a mixture, includes the upper and the lower limits of the range, e.g. if the content in weight, or in volume, of a component A in a mixture is indicated as “X to Y”, the content of A can be X, Y or any of the intermediate values. By “polymorphically stable” it is meant that the crystalline form B and the amorphous form of the present invention, when stored (I) at 70° C. under reduced pressure for at least 1 hour (preferably for 5 hours, more preferably for 10 hours, even more preferably for 12 hours), (II) at 60° C. for at least 1 day (preferably for 5 days, more preferably for 10 days, even more preferably for 15 days), (III) at 40° C. and 75% RH for at least 1 day (preferably for 5 days, more preferably for 10 days, even more preferably for 15 days), and/or (IV) at 25-30° C. and 80% RH for at least 1 day (preferably for 5 days, more preferably for 10 days, even more preferably for 15 days), show no signs of transformation into a different crystalline tezacaftor (e.g. Form A) as evaluated by the absence of peaks in an X-ray powder diffractogram (XRPD).
(§2) XRPD analyses were performed at 20-30° C. by means of a theta/theta vertical scan Bruker AXS D8 Advance high-performance diffractometer. The instrument was equipped with a Cu-Kα X-ray tube operating at 40 kV/40 mA and generating radiation having λ=1.5418 Å. The detector was a linear Lynxeye XE-T position sensitive set at 250 mm from the sample. Powder samples were deposited in the 20 mm×0.5 mm hollow of the sample holder, consisting of a quartz monocrystal zero background plate. A mild grinding of the sample in an agate mortar may be needed to obtain a suitable fine powder. Diffraction data were collected applying the following conditions: angular range 2-40° 2-theta, 0.02°/step scan and 1 second acquisition time. The instrument calibration was verified by means of a NIST SRM 1976b. Data acquisition was performed by means of Bruker Diffraction Measurement Center software. Data elaboration was performed by means of Crystal Impact Match!.
The amorphous tezacaftor, prepared as described in Examples 3 to 5, was maintained at 70° C. under a reduced pressure for 12 hours.
The amorphous tezacaftor, prepared as described in Examples 3 to 5, was maintained, in a closed vial, at 60° C. for 15 days.
The amorphous tezacaftor, prepared as described in Examples 3 to 5, was maintained, in an open vial, at 40° C. and 75% RH for 15 days.
The amorphous tezacaftor, prepared as described in Examples 3 to 5, was maintained, in an open vial, at 25-30° C. and 80% RH for 15 days.

[2] = Stressed stability of crystalline tezacaftor form B, polymorphic stability by XRPD; type: physicochemical; conditions: 4 weeks
Description: as §1
as §2, with “Data acquisition was performed by means of Bruker Diffraction Measurement Center software. Data elaboration was performed by means of Crystal Impact Match!.” left out

Compound | XRPD analysis after storage (polymorphic stability) ([1]; 25-30° C. and 80% RH, open vial, 15 days) | XRPD analysis after storage (polymorphic stability) ([1]; 40° C. and 75% RH, open vial, 15 days) | XRPD analysis after storage (polymorphic stability) ([1]; 60° C., closed vial, 15 days) | XRPD analysis after storage (polymorphic stability) ([1]; 70° C. under reduced pressure, 12 hours) | XRPD analysis after storage (polymorphic stability) ([2]; 20-25° C., 80% relative humidity, open vial) | XRPD analysis after storage (polymorphic stability) ([2]; 40° C. and 75% RH, open vial) | XRPD analysis after storage (polymorphic stability) ([2]; 60° C., closed vial)
CC(C)(CO)c1cc2cc(NC(=O)C3(c4ccc5c(c4)OC(F)(F)O5)CC3)c(F)cc2n1C[C@@H](O)CO [amorphous tezacaftor, (R)-1-(2,2-difluorobenzo[d][1,3]dioxol-5-yl)-N-(1-(2,3-dihydroxypropyl)-6-fluoro-2-(1-hydroxy-2-methylpropan-2-yl)-1H-indol-5-yl)cyclopropane-1-carboxamide] | XRPD spectrum corresponding to the one obtained in example 3 | XRPD spectrum corresponding to the one obtained in example 3 | XRPD spectrum corresponding to the one obtained in example 3 | XRPD spectrum corresponding to the one obtained in example 3 |  |  | 
CC(C)(CO)c1cc2cc(NC(=O)C3(c4ccc5c(c4)OC(F)(F)O5)CC3)c(F)cc2n1C[C@@H](O)CO [crystalline tezacaftor, (R)-1-(2,2-difluorobenzo[d][1,3]dioxol-5-yl)-N-(1-(2,3-dihydroxypropyl)-6-fluoro-2-(1-hydroxy-2-methylpropan-2-yl)-1H-indol-5-yl)cyclopropane-1-carboxamide] |  |  |  |  | XRPD diffractogram corresponding to the one obtained in example 1 | XRPD diffractogram corresponding to that obtained in example 1 | XRPD diffractogram corresponded to that obtained from the sample of example 1
